This test concerns BDF1 mice, P388 leukemia ip, median survival T/C. The test is described as follows: NCI In Vivo Anticancer Drug Screen. Data for tumor model P388 Leukemia (intraperitoneal) in B6D2F1 (BDF1) mice. Particulars: endpoint: median survival time, higher = longer survival. A digest of the protocol:
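Vehicle-dosed animals serve as the reference; survival of compound-dosed, tumour-implanted mice is divided by it.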

[1] abbreviates: dose: 100.0 mg/kg/injection, schedule: Q04DX003 (ip), vehicle: Klucel (hydroxypropylcellulose) (HPC).
Setting [2] is: dose: 200.0 mg/kg/injection, schedule: Q04DX003 (ip), vehicle: Klucel (hydroxypropylcellulose) (HPC).
Setting [3] is: dose: 100.0 mg/kg/injection, schedule: Q01DX009 (ip), vehicle: saline with Tween-80.
Setting [4] is: dose: 200.0 mg/kg/injection, schedule: Q01DX009 (ip), vehicle: saline with Tween-80.
The mark [5] stands for this setting: dose: 3.13 mg/kg/injection, schedule: Q01DX009 (ip), vehicle: saline.
[6] abbreviates: dose: 6.25 mg/kg/injection, schedule: Q01DX009 (ip), vehicle: saline.
Where [7] appears, read: dose: 50.0 mg/kg/injection, schedule: Q01DX009 (ip), vehicle: saline with Tween-80.
Where [8] appears, read: dose: 1.56 mg/kg/injection, schedule: Q01DX009 (ip), vehicle: saline.
Where [9] appears, read: dose: 50.0 mg/kg/injection, schedule: Q04DX003 (ip), vehicle: Klucel (hydroxypropylcellulose) (HPC).

Where “and” joins values, the source holds several entries; their conditions need not be identical. Equal entries are not always repeated. Inconclusive results and toxic doses are left out.

On to `c1ccc(C2SCCSCCS2)cc1`, for which the T/C runs as follows: under setting [1], 90 % of control; under setting [2], 100 % of control; (dose: 400.0 mg/kg/injection, schedule: Q04DX003 (ip), vehicle: Klucel (hydroxypropylcellulose) (HPC)) 100 % of control.

For `CCCCCCC(C)NN` (centres undefined), the T/C reads like this: (dose: 12.5 mg/kg/injection, schedule: Q04DX003 (ip), vehicle: saline) 98 % of control; (dose: 25.0 mg/kg/injection, schedule: Q04DX003 (ip), vehicle: saline) 105 % of control; (dose: 50.0 mg/kg/injection, schedule: Q04DX003 (ip), vehicle: saline) 107 % of control.

As for `Nc1nc(N)c(N=O)c(Nc2ccc(Br)cc2)n1`, the T/C by setting is: under setting [3], 104 % of control; under setting [4], 113 % of control; (dose: 400.0 mg/kg/injection, schedule: Q01DX009 (ip), vehicle: saline with Tween-80) 95 % of control.

With `CCOC(=O)c1ccc(NCc2cccc([N+](=O)[O-])c2)cc1`, the T/C (dose: 100.0 mg/kg/injection, schedule: Q01DX001 (ip), vehicle: Klucel (hydroxypropylcellulose) (HPC)) is 115 % of control; the T/C (dose: 200.0 mg/kg/injection, schedule: Q01DX001 (ip), vehicle: Klucel (hydroxypropylcellulose) (HPC)) was 100 % of control; the T/C (dose: 400.0 mg/kg/injection, schedule: Q01DX001 (ip), vehicle: Klucel (hydroxypropylcellulose) (HPC)) is 93 % of control.

As for `CCN(CC)CCCCCCNc1cc(OC)c(OC)c2c(C)ccnc12`, the T/C is 102 % of control under setting [5] and 109 % of control under setting [6].

Consider `COCCn1c2c(nc(C(=O)OC)/c1=N\C(=O)Nc1ccccc1)CCCC2`, for which the T/C is, setting by setting: under setting [7], 109 % of control; under setting [3], 106 % of control; under setting [4], 106 % of control.

As for `CC(C)(C)CC(=O)OCCC[N+](C)(C)[O-]`, the T/C (dose: 100.0 mg/kg/injection, schedule: Q01DX005 (ip), vehicle: water) is 100 % of control and the T/C (dose: 200.0 mg/kg/injection, schedule: Q01DX005 (ip), vehicle: water) is 100 % of control.

For `O=C1OC(=O)C2C3CCC(O3)C12` (centres undefined), the T/C was 100 % of control (dose: 0.39 mg/kg/injection, schedule: Q04DX003 (ip), vehicle: saline); 104 % of control (dose: 0.65 mg/kg/injection, schedule: Q01DX001 (ip), vehicle: saline); 105 % of control (dose: 0.78 mg/kg/injection, schedule: Q01DX009 (ip), vehicle: saline); 100 % of control (dose: 0.78 mg/kg/injection, schedule: Q04DX003 (ip), vehicle: saline); 100 % of control (dose: 1.31 mg/kg/injection, schedule: Q01DX001 (ip), vehicle: saline); 100 % of control under setting [8]. Further, the T/C reads like this: (dose: 1.56 mg/kg/injection, schedule: Q04DX003 (ip), vehicle: saline) 100 % of control; (dose: 2.3 mg/kg/injection, schedule: Q04DX003 (ip), vehicle: saline) 110 % of control; (dose: 2.62 mg/kg/injection, schedule: Q01DX001 (ip), vehicle: saline) 100 % of control; (dose: 3.5 mg/kg/injection, schedule: Q04DX003 (ip), vehicle: saline) 115 % of control; (dose: 5.2 mg/kg/injection, schedule: Q04DX003 (ip), vehicle: saline) 100 % of control; (dose: 5.25 mg/kg/injection, schedule: Q01DX001 (ip), vehicle: Klucel (hydroxypropylcellulose) (HPC)) 91 % of control. In addition, the T/C was 95 % of control (dose: 5.25 mg/kg/injection, schedule: Q01DX001 (ip), vehicle: saline); 100 % of control (dose: 7.2 mg/kg/injection, schedule: Q04DX003 (ip), vehicle: saline); 87 % of control (dose: 21.0 mg/kg/injection, schedule: Q01DX001 (ip), vehicle: Klucel (hydroxypropylcellulose) (HPC)).

On to `O=c1oc2c3ccccc3c3ccccc3c2o1`, for which the T/C was 117 % of control (dose: 25.0 mg/kg/injection, schedule: Q01DX009 (ip), vehicle: Klucel (hydroxypropylcellulose) (HPC)); 115 % of control (dose: 50.0 mg/kg/injection, schedule: Q01DX009 (ip), vehicle: Klucel (hydroxypropylcellulose) (HPC)); 114 % of control (dose: 100.0 mg/kg/injection, schedule: Q01DX009 (ip), vehicle: Klucel (hydroxypropylcellulose) (HPC)).

Take `O=C(NC(=O)c1c(F)cccc1F)Nc1nc2cc(Cl)ccc2o1`: the T/C was 96 % of control (dose: 25.0 mg/kg/injection, schedule: Q01DX009 (ip), vehicle: saline with Tween-80); 96 % of control under setting [7]; 90 % of control under setting [3].

As for `CCC(=N\NC(=S)NCCN(CC)CC)/C(C)=N/NC(=S)NCCN(CC)CC`, the T/C was 116 % of control under setting [8]; 105 % of control under setting [5]; 106 % of control under setting [6]; 109 % of control and 118 % of control (dose: 12.5 mg/kg/injection, schedule: Q01DX009 (ip), vehicle: saline).

As for `C[C@@H]1CC[C@@]2(NC1)O[C@H]1C[C@H]3[C@@H]4CC=C5C[C@@H](O)CC[C@]5(C)[C@H]4CC[C@]3(C)[C@H]1[C@@H]2C`, the T/C is 100 % of control under setting [9]; 110 % of control (dose: 50.0 mg/kg/injection, schedule: Q04DX003 (ip), vehicle: saline sonified); 86 % of control (dose: 88.0 mg/kg/injection, schedule: Q01DX009 (ip), vehicle: saline with Tween-80); 109 % of control under setting [1]; 100 % of control (dose: 100.0 mg/kg/injection, schedule: Q04DX003 (ip), vehicle: saline sonified); 118 % of control (dose: 132.0 mg/kg/injection, schedule: Q01DX009 (ip), vehicle: saline with Tween-80). The T/C is, setting by setting: under setting [2], 104 % of control; (dose: 200.0 mg/kg/injection, schedule: Q04DX003 (ip), vehicle: saline sonified) 105 % of control; (dose: 300.0 mg/kg/injection, schedule: Q01DX009 (ip), vehicle: saline with Tween-80) 95 % of control.

For `CC(=O)Nc1ccc2ccc(Cl)nc2n1`, the T/C was 95 % of control (dose: 100.0 mg/kg/injection, schedule: Q04DX003 (ip), vehicle: saline); 100 % of control (dose: 200.0 mg/kg/injection, schedule: Q04DX003 (ip), vehicle: saline); 104 % of control (dose: 400.0 mg/kg/injection, schedule: Q04DX003 (ip), vehicle: saline).

In the case of `CCN(c1ccccc1)c1ccc(C=O)cc1`, the T/C is, setting by setting: under setting [1], 94 % of control; under setting [2], 100 % of control.

As for `Cc1cc(N(CCCl)CCCl)ccc1N=Nc1ccccc1C(=O)[O-].Cc1cc(N(CCCl)CCCl)ccc1N=Nc1ccccc1C(=O)[O-].[Cu+2]`, the T/C is, setting by setting: (dose: 16.5 mg/kg/injection, schedule: Q04DX003 (ip), vehicle: saline with Tween-80) 240 % of control and 105 % of control; (dose: 25.0 mg/kg/injection, schedule: Q04DX003 (ip), vehicle: saline with Tween-80) 263 % of control and 165 % of control; (dose: 37.5 mg/kg/injection, schedule: Q04DX003 (ip), vehicle: saline with Tween-80) 227 % of control.

In the case of `O=[N+]([O-])c1ccc(C(F)(F)F)cc1`, the T/C was 109 % of control (dose: 25.0 mg/kg/injection, schedule: Q01DX009 (ip), vehicle: other); 104 % of control (dose: 50.0 mg/kg/injection, schedule: Q01DX009 (ip), vehicle: other); 95 % of control (dose: 50.0 mg/kg/injection, schedule: Q04DX003 (ip), vehicle: other); 113 % of control (dose: 100.0 mg/kg/injection, schedule: Q01DX009 (ip), vehicle: other); 100 % of control (dose: 100.0 mg/kg/injection, schedule: Q04DX003 (ip), vehicle: other); 100 % of control (dose: 200.0 mg/kg/injection, schedule: Q04DX003 (ip), vehicle: other).

Turning to `O=S1(=O)CC(S(=O)(=O)O)C(S(=O)(=O)O)C1` (centres undefined), the T/C under setting [9] is 100 % of control; the T/C (dose: 100.0 mg/kg/injection, schedule: Q01DX001 (ip), vehicle: saline) was 108 % of control; the T/C under setting [1] is 100 % of control; the T/C (dose: 200.0 mg/kg/injection, schedule: Q01DX001 (ip), vehicle: saline) was 100 % of control; the T/C under setting [2] is 100 % of control; the T/C (dose: 400.0 mg/kg/injection, schedule: Q01DX001 (ip), vehicle: saline) was 108 % of control.

With `OC(CC1CCCCN1)c1cc2c(Cl)cc(Cl)cc2c2cc(C(F)(F)F)ccc12` (centres undefined), the T/C under setting [7] was 114 % of control.
